Patent publication US9868766B2, “Peptides as oxytocin agonists” (Hoffmann-La Roche Inc., priority 2012, dated 2018)
Positions of bridges follow the written chain, without caps; N, C: chain ends. Non-standard residues stand in square brackets, D forms with d. Residues, ends and D or L forms follow the SMILES beside them. Phe(4-NH2) = Nc1ccc(C[C@H](N)C(=O)O)cc1; Hyp = O=C(O)[C@@H]1C[C@@H](O)CN1; aThr = C[C@H](O)[C@H](N)C(=O)O; Tle = CC(C)(C)[C@H](N)C(=O)O; Sar = CNCC(=O)O

How the values were obtained:
Type in all cases: cell-based
[1] = molecular target: T1, human Oxytocin (OTR) receptor (Homo sapiens, UniProt P30559); assay: Calcium flux assay (FLIPR), agonist mode, CHO cells expressing human OTR; conditions: for EC50: CHO cells stably expressing human OTR, calcium flux, read-out: hOT EC50; for Emax: CHO, read-out: hOT efficacy (%); for Emax / hOT efficacy (%): maximum response normalized to endogenous full agonist = 100%
T1 construct: expressed in transfected cells
T1 sequence (P30559 1-389): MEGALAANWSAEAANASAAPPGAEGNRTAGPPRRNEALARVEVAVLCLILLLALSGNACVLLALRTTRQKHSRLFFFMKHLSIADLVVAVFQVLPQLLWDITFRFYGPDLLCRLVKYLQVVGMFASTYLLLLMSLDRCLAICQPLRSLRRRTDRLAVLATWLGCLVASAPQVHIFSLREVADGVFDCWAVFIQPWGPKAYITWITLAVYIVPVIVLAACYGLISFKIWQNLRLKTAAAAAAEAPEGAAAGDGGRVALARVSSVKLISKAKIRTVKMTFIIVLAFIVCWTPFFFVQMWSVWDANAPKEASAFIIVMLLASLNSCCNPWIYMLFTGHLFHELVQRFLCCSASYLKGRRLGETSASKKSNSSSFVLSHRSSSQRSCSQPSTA
In short: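 Monoclonal CHO cells stably expressing the receptor were loaded with 2 μM Fluo-4-AM in HBSS with 20 mM HEPES (pH 7.3) and 2.5 mM probenecid. Compound was added 10 s into reading and fluorescence followed for 5 min.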

human V1a receptor = molecular target: T2, human V1a receptor (Homo sapiens, UniProt P37288); assay: Calcium flux assay (FLIPR), agonist mode, CHO cells expressing human V1a; conditions: CHO cells stably expressing human V1a; calcium flux; read-out: hV1a EC50
T2 construct: expressed in transfected cells
T2 sequence (P37288 whole entry): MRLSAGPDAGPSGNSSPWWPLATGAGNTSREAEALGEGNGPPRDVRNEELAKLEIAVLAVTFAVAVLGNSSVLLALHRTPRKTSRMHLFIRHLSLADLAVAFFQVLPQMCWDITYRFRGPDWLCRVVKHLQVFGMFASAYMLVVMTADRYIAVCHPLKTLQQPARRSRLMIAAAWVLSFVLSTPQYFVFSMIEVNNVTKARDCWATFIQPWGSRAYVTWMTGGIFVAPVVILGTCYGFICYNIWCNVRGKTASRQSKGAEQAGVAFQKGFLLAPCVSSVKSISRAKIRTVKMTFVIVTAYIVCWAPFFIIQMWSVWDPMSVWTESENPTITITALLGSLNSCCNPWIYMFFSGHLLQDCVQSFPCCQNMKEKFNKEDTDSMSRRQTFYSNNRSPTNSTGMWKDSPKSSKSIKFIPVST
Description: (§1) Chines Hamster Ovary (CHO) cells were transfected with expression plasmids encoding either the human V1a, the human Oxytocin (OTR) or the humanV2 receptor, the later in combination with the chimeric Gqs5 G protein to redirect the signal to Calcium flux. Stable cells were cloned by limiting dilution to yield monoclonal cell lines expressing either human V1a, human V2+Gqs5 or human OTR receptors and selected based on functional responses detected on a fluorometric imaging plate reader (FLIPR) detecting Calcium flux in the cell after receptor activation. The stable cell lines were grown in F-12 K Nutrient Mixture (Kaighns Modification), containing 10% foetal bovine serum (FBS), 1% penicillin-streptomycin, 1% L-glutamate, 200 ug/ml Geneticin at 37° C. in a 10% CO2 incubator at 95% humidity.
(§2) On the afternoon before the assay, cells were plated at a density of 50,000 cells/well into black 96 well plates with clear bottoms to allow cell inspection and fluorescence measurements from the bottom of each well. The density of cells was sufficient to yield a confluent monolayer the next day. Hanks balanced salt solution, without phenol red, containing 20 mM HEPES (pH 7.3) and 2.5 mM probenecid (assay buffer) was prepared fresh for each experiment. Compound dilutions were made using a Beckman Biomek 2000 laboratory automation workstation, in assay buffer containing 1% DMSO. The dye-loading buffer consisted of a final concentration of 2 μM Fluo-4-AM (dissolved in DMSO and pluronic acid) in assay buffer. The existing culture media was removed from the wells and 100 μl of the dye-loading buffer was added to each well and incubated for approximately 60 min at 37° C. in a 5% CO2 incubator at 95% humidity. Once dye-loaded, the cells were washed thoroughly on an Embla cell washer with the assay buffer to remove any unincorporated dye. Exactly 100 μl assay buffer was left in each well.
(§3) Each 96 well plate containing dye-loaded cells was placed into the FLIPR machine and the laser intensity set to a suitable level to detect low basal fluorescence. To test compounds as agonists, 25 μl diluted compound was added to the plate 10 seconds into the fluorescent measurements and fluorescent response was recorded for 5 minutes. The fluorescence data was normalized to the endogenous full agonist dose-response set at 100% for the maximum response and 0% for the minimum. Each agonist concentration-response curve was constructed using a four parameter logistic equation with Microsoft Excel XLFit as follows: Y=Minimum+((Maximum−Minimum)/(1+10^(Log EC50-X)nH)), where y is the % normalized fluorescence, minimum is the minimum y, maximum is the maximum y, log EC50 is the log10 concentration which produces 50% of the maximum induced fluorescence, x is the log10 of the concentration of the agonist compound and H is the slope of the curve (the Hill Coefficient). The maximum value gives the efficacy of the agonist test compound in percentage. The concentration of agonist that produced a half-maximal response is represented by the EC50 value, the logarithm of which yielded the pEC50 value.

human V2 receptor = molecular target: T3, human V2 receptor (Homo sapiens, UniProt P30518); assay: Calcium flux assay (FLIPR), agonist mode, CHO cells expressing human V2 + Gqs5; conditions: for EC50: CHO cells stably expressing human V2 + chimeric Gqs5, calcium flux, read-out: hV2 EC50; for Emax: CHO, maximum response normalized to endogenous full agonist = 100%, read-out: hV2 efficacy (%)
T3 construct: expressed in transfected cells
T3 sequence (P30518 whole entry): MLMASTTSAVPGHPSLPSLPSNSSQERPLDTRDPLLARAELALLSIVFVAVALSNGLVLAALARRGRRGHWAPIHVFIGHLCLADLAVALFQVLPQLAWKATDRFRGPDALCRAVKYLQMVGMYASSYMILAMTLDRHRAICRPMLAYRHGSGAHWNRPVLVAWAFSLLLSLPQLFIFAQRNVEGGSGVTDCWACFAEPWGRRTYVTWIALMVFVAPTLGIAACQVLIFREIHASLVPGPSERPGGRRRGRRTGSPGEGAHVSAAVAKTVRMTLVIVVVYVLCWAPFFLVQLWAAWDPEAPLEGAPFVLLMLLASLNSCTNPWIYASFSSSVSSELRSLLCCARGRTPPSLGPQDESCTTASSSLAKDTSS
Description: as §1, §2, §3

Row | EC50 [1] [nM] | Emax [1] [%] | EC50 (human V1a receptor) [nM] | EC50 (human V2 receptor) [nM] | Emax (human V2 receptor) [%] | hOT efficacy (%) [1] [%] | Compound
1 | 0.5 | 117 | > 27000 | 1230 | 112 | – | CC[C@H](C)[C@@H]1NC(=O)[C@H](Cc2ccc(O)cc2)NC(=O)CNC(=O)CC[C@@H](C(=O)N(C)CC(=O)N[C@H](C(=O)NCC(N)=O)C(C)(C)C)NC(=O)[C@H](CC(N)=O)NC(=O)[C@H](CCC(N)=O)NC1=O [Example 44] (GYIQNE[Sar][Tle]G-NH2; lactam N-6)
2 | 2 | – | > 10000 | 2620 | 102 | 124 | CC[C@H](C)[C@@H]1NC(=O)[C@H](Cc2ccc(O)cc2)NC(=O)CNC(=O)CC[C@@H](C(=O)N(C)CC(=O)N[C@H](C(=O)NCC(N)=O)C(C)C)NC(=O)[C@H](CC(N)=O)NC(=O)[C@H](CCC(N)=O)NC1=O [Example 26] (GYIQNE[Sar]VG-NH2; lactam N-6)
3 | 2.2 | 152 | > 27000 | 2510 | 98 | – | CC[C@H](C)[C@@H]1NC(=O)[C@H](Cc2ccc(O)cc2)NC(=O)CNC(=O)CC[C@@H](C(=O)N2CCC[C@H]2C(=O)N[C@@H](CC(C)C)C(=O)NCC(N)=O)NC(=O)[C@H](CC(N)=O)NC(=O)[C@H](CCC(N)=O)NC1=O [Example 24] (GYIQNEPLG-NH2; lactam N-6)
4 | 0.6 | 113 | > 27000 | 3810 | 91 | – | CC[C@H](C)[C@@H]1NC(=O)[C@H](Cc2ccc(O)cc2)NC(=O)CNC(=O)CC[C@@H](C(=O)N2C[C@H](O)C[C@H]2C(=O)N[C@@H](CC(C)C)C(=O)NCC(N)=O)NC(=O)[C@H](CC(N)=O)NC(=O)[C@H](CCC(N)=O)NC1=O [Example 45] (GYIQNE[Hyp]LG-NH2; lactam N-6)
5 | 3 | – | > 10000 | 3820 | 103 | 125 | CC[C@H](C)[C@@H]1NC(=O)[C@H](Cc2ccc(O)cc2)NC(=O)CNC(=O)CC[C@@H](C(=O)N(C)CC(=O)N[C@H](C(=O)NCC(N)=O)[C@H](C)O)NC(=O)[C@H](CC(N)=O)NC(=O)[C@H](CCC(N)=O)NC1=O [Example 25] (GYIQNE[Sar][aThr]G-NH2; lactam N-6)
6 | 10 | – | > 27000 | 4800 | 107 | 111 | CC[C@H](C)[C@@H]1NC(=O)[C@H](Cc2ccc(O)cc2)NC(=O)CNC(=O)CC[C@@H](C(=O)N(C)CC(=O)N[C@@H](Cc2ccc(N)cc2)C(=O)NCC(N)=O)NC(=O)[C@H](CC(N)=O)NC(=O)[C@H](CCC(N)=O)NC1=O [Example 1] (GYIQNE[Sar][Phe(4-NH2)]G-NH2; lactam N-6)
7 | 4 | 119 | > 10000 | 1990 | 106 | – | CC[C@H](C)[C@@H]1NC(=O)[C@H](Cc2ccc(O)cc2)NC(=O)CNC(=O)CC[C@@H](C(=O)N(C)CC(=O)N[C@@H](Cc2ccc(O)cc2)C(=O)NCC(N)=O)NC(=O)[C@H](CC(N)=O)NC(=O)[C@H](CCC(N)=O)NC1=O [Example 32] (GYIQNE[Sar]YG-NH2; lactam N-6)
